From patent publication US10440955B2, “Methods comprising a biocidal polyamine” (Curza Global, LLC, priority 2013, dated 2019)
Where a name gives a salt, the structure may show the parent alone. Read-outs that look alike come from different tables or passages of the source. Values belong to the compound of their own block, whether it stands above or below them.

Assays:
[1] = tested on: MRSA; experiment: MIC, 96-well CAMHB, 10^5 to 10^2 CFU/mL in 24 hours; assay type: cell-based, Staphylococcus aureus; conditions: Staphylococcus aureus, MRSA, read-out: MIC (MRSA)
Procedure: (§1) To determine the MIC of polyamine compounds, the protocol described herein was used.
In brief, a 0.5 McFarland of each bacterial isolate was made. A 0.5 McFarland is a measure of turbidity in a liquid sample that contains approximately 1×10^∧8 CFU/mL. The 0.5 McFarland standard was diluted in cation adjusted Mueller Hinton Broth (CAMHB), and 50 μL of broth were added to a well of a 96-well plate. In addition, 50 μL of CAMHB that contained a desired concentration of antimicrobial were also added to the well for a final volume of 100 μL and a final concentration of approximately 5×10^4 CFU/well (which equated to approximately 5×10^5 CFU/mL). Each well contained a desired amount of polyamine compound in order to experimentally determine the MIC. Each 96-well plate was incubated at 37° C. for 24 hours. The contents of each well were plated on tryptic soy agar (TSA). TSA plates were incubated for 37° C. for 24 hours after which the number of CFU were counted and used to calculate the CFU/mL that remained after exposure to varying concentrations of compound. This procedure was repeated n=8 times for each concentration of antimicrobial. […]

[2] = tested on: A. baumannii; experiment: as above; assay type: cell-based, Acinetobacter baumannii; conditions: Acinetobacter baumannii, read-out: MIC (A. bumannii)
Procedure: as §1
(§2) In brief, a 0.5 McFarland of each bacterial isolate was made. A 0.5 McFarland is a measure of turbidity in a liquid sample that contains approximately 1×10^∧8 CFU/mL. The 0.5 McFarland standard was diluted in cation adjusted Mueller Hinton Broth (CAMHB), and 50 μL of broth were added to a well of a 96-well plate. In addition, 50 μL of CAMHB that contained a desired concentration of antimicrobial were also added to the well for a final volume of 100 μL and a final concentration of approximately 5×10^4 CFU/well (which equated to approximately 5×10^5 CFU/mL). Each well contained a desired amount of polyamine compound in order to experimentally determine the MIC. Each 96-well plate was incubated at 37° C. for 24 hours. The contents of each well were plated on tryptic soy agar (TSA). TSA plates were incubated for 37° C. for 24 hours after which the number of CFU were counted and used to calculate the CFU/mL that remained after exposure to varying concentrations of compound. This procedure was repeated n=8 times for each concentration of antimicrobial.
A 0.5 McFarland of A. baumannii is made. A 0.5 McFarland is a measure of turbidity in a liquid sample that contains approximately 7.5×10^7 CFU/mL. The 0.5 McFarland standard is diluted in CAMHB and 50 μL of broth is added to a well of a 96-well plate. In addition, 50 μL of CAMHB that contains a desired concentration of antimicrobial is added to the well for a final volume of 100 μL and a final concentration of approximately 5×10^4 CFU/well (which equates to approximately 5×10^5 CFU/mL). Each well contains a desired amount of CZ compound in order to experimentally determine the MIC. Each 96-well plate is incubated at 37° C. for 24 hours. The contents of each well is plated on tryptic soy agar (TSA). TSA plates is incubated at 37° C. for 24 hours after which the number of CFUs is counted and used to calculate the CFU/mL that remain after exposure to varying concentrations of compound. This procedure is repeated n=8 times for each concentration of antimicrobial. […]

[3] = tested on: P. aeruginosa; experiment: as above; assay type: cell-based, Pseudomonas aeruginosa; conditions: for MIC: Pseudomonas aeruginosa
Procedure: as §1, §2

[4] = tested on: L-929 cells (ATCC CCL-1); experiment: Minimal Essential Media (MEM) Elution cytotoxicity test; assay type: cell-based
Procedure: Summary: The Minimal Essential Media (MEM) Elution test was designed to determine the cytotoxicity of extractable substances. The test article was added to cell monolayers and incubated. The cell monolayers were examined and scored based on the degree of cellular destruction.
Acceptance Criteria: The United States Pharmacopeia & National Formulary (USP <87>) states that the test article meets the requirements, or receives a passing score (Pass) if the reactivity grade is not greater than grade 2 or a mild reactivity.
Acceptance criteria were based upon the negative and media controls receiving “0” reactivity grades and positive controls receiving a 3-4 reactivity grades (moderate to severe).
The cell monolayers were examined microscopically. The wells were scored as to the degree of discernable morphological cytotoxicity on a relative scale of 0 to 4:
The results from the three wells were averaged to give a final cytotoxicity score.
[…] This initial concentration was then diluted 1: 2, 1:4, 1:8, and 1:16. Multiple well cell culture plates were seeded with a verified quantity of industry standard L-929 cells (ATCC CCL-1) and incubated until approximately 80% confluent. The test articles and control extracts were added to the cell monolayers in triplicate. The cells were incubated at 37±1° C. with 5±1% CO2 for 48±3 hours.

[5] = Table 5, read-out: MIC (P. aeruginosa)
[6] = Table 10A, dilution 1:2 of 25 μg/mL
[7] = Table 10A, dilution 1:4 of 25 μg/mL
[8] = Table 10A, dilution 1:8 of 25 μg/mL
[9] = Table 10A, dilution 1:16 of 25 μg/mL
[10] = read-out: MIC (P. aeruginosa), Table 5

SMILES: NCCCCCCCCCCCCNCc1cccc(CNCCCCCCCCCCCCN)c1 [CZ-21, N^1,N^1′-(1,3-phenylenebis(methylene))bis(dodecane-1,12-diamine), hydrochloride salt]
MIC [1]: < 50 µM
MIC [2]: > 100 µM

SMILES: NCCCNCCCNCc1cc(CNCCCNCCCN)cc(CNCCCNCCCN)c1 [CZ-55]
MIC ([1]; Table 5): < 50 µM
MIC [3, 5]: < 50 µM
MIC ([2]; Table 5): > 100 µM

MIC ([1]; Table 5): < 50 µM
MIC [3, 5]: > 100 µM
MIC ([2]; Table 5): > 100 µM
SMILES: NCCCNCCCNCc1cc(CNCCCNCCCN)cc(-c2c(CNCCCNCCCN)cccc2CNCCCNCCCN)c1 [CZ-60]

SMILES: NCCCNCCCNCc1cc(CNCCCNCCCN)cc(-c2ccc3c(c2)OCO3)c1 [CZ-61, N^1,N^1′-((5-(benzo[d][1,3]dioxol-5-yl)-1,3-phenylene)bis(methylene))bis(N^3-(3-ammoniopropyl)propane-1,3-diaminium) chloride]
MIC [2]: < 50 µM

SMILES: NCCCNCCCNCc1cccc(-c2cc(CNCCCNCCCN)cc(CNCCCNCCCN)c2)c1 [CZ-62, N^1,N^1′,N^1″-([1,1′-biphenyl]-3,3′,5-triyltris(methylene))tris(N^3-(3-aminopropyl)propane-1,3-diamine), hydrochloride salt]
Results Pass/Fail ([4]; Table 10A, 25 μg/mL): Fail (a numerical grade greater than 2 is considered a cytotoxic effect, or a failing score (Fail))
Results Pass/Fail [4, 6]: Fail (a numerical grade greater than 2 is considered a cytotoxic effect, or a failing score (Fail))
Results Pass/Fail [4, 7]: Fail (a numerical grade greater than 2 is considered a cytotoxic effect, or a failing score (Fail))
Results Pass/Fail [4, 8]: Pass (receives a passing score (Pass) if the reactivity grade is not greater than grade 2 or a mild reactivity)
Results Pass/Fail [4, 9]: Pass (receives a passing score (Pass) if the reactivity grade is not greater than grade 2 or a mild reactivity)
MIC [2]: < 50 µM

SMILES: Cc1ccccc1-c1cc(CNCCCNCCCN)cc(CNCCCNCCCN)c1 [CZ-63, N^1,N^1′-((2′-methyl-[1,1′-biphenyl]-3,5-diyl)bis(methylene))bis(N^3-(3-aminopropyl)propane-1,3-diamine), hydrochloride salt]
MIC [2]: < 50 µM

SMILES: NCCCNCCCNCc1ccc(-c2cc(CNCCCNCCCN)cc(CNCCCNCCCN)c2)cc1 [CZ-65, N^1,N^1′,N^1″-([1,1′-biphenyl]-3,4′,5-triyltris(methylene))tris(N^3-(3-aminopropyl)propane-1,3-diamine), hydrochloride salt]
Results Pass/Fail ([4]; Table 10A, 25 μg/mL): Fail (a numerical grade greater than 2 is considered a cytotoxic effect, or a failing score (Fail))
Results Pass/Fail [4, 6]: Fail (a numerical grade greater than 2 is considered a cytotoxic effect, or a failing score (Fail))
Results Pass/Fail [4, 7]: Pass (receives a passing score (Pass) if the reactivity grade is not greater than grade 2 or a mild reactivity)
Results Pass/Fail [4, 8]: Pass (receives a passing score (Pass) if the reactivity grade is not greater than grade 2 or a mild reactivity)
Results Pass/Fail [4, 9]: Pass (receives a passing score (Pass) if the reactivity grade is not greater than grade 2 or a mild reactivity)
MIC [2]: < 50 µM

SMILES: NCCCNCCCNCCCNCc1cc(CNCCCNCCCNCCCN)cc(-c2ccccc2)c1 [CZ-73, N^1,N^1′-([1,1′-biphenyl]-3,5-diylbis(methylene))bis(N^3-(3-((3-aminopropyl)amino)propyl)propane-1,3-diamine), hydrochloride salt]
MIC [2]: 50 to 100 µM

SMILES: CCCCC(CC)COc1cc(CNCCCNCCCN)cc(CNCCCNCCCN)c1 (stereo not drawn) [CZ-81, N^1,N^1′-((5-((2-ethylhexyl)oxy)-1,3-phenylene)bis(methylene))bis(N^3-(3-aminopropyl)propane-1,3-diamine), hydrochloride salt]
MIC [1]: < 50 µM
MIC [3, 10]: < 50 µM
MIC [2]: < 50 µM

SMILES: CCCCNCCCNCCCNCc1cc(CNCCCNCCCNCCCC)cc(-c2ccccc2)c1 [CZ-83, N^1,N^1′-([1,1′-biphenyl]-3,5-diylbis(methylene))bis(N^3-(3-(butylamino)propyl)propane-1,3-diamine), hydrochloride salt]
MIC [1]: < 50 µM
MIC [3, 10]: < 50 µM
MIC [2]: < 50 µM

MIC ([1]; Table 5): < 50 µM
MIC (P. aeruginosa) ([3]; Table 5): ++ to +++
SMILES: CC(C)CNCCCNCCCNCc1cccc(-c2cc(CNCCCNCCCNCC(C)C)cc(CNCCCNCCCNCC(C)C)c2)c1 [CZ-99, N^1,N^1′,N^1″-([1,1′-biphenyl]-3,3′,5-triyltris(methylene))tris(N^3-(3-(isobutylamino)propyl)propane-1,3-diamine)]
Results Pass/Fail ([4]; Table 11A, 25 μg/mL): Pass (receives a passing score (Pass) if the reactivity grade is not greater than grade 2 or a mild reactivity)
Results Pass/Fail ([4]; Table 11A, dilution 1:2 of 25 μg/mL): Pass (receives a passing score (Pass) if the reactivity grade is not greater than grade 2 or a mild reactivity)
Results Pass/Fail ([4]; Table 11A, dilution 1:4 of 25 μg/mL): Pass (receives a passing score (Pass) if the reactivity grade is not greater than grade 2 or a mild reactivity)
Results Pass/Fail ([4]; Table 11A, dilution 1:8 of 25 μg/mL): Pass (receives a passing score (Pass) if the reactivity grade is not greater than grade 2 or a mild reactivity)
Results Pass/Fail ([4]; Table 11A, dilution 1:16 of 25 μg/mL): Pass (receives a passing score (Pass) if the reactivity grade is not greater than grade 2 or a mild reactivity)

MIC ([1]; Table 5): < 50 µM
MIC [3, 5]: < 50 µM
MIC ([2]; Table 5): < 50 µM
SMILES: CCCCCCCCNCCCNCCCNCc1cc(CNCCCNCCCNCCCCCCCC)cc(OCC2CCCCC2)c1 [CZ-103, N^1,N^1′-((5-(cyclohexylmethoxy)-1,3-phenylene)bis(methylene))bis(N^3-(3-(octylamino)propyl)propane-1,3-diamine)]
